Measurements from patent US8795979B2, “Hydrolase enzyme substrates and uses thereof” (General Atomics, priority 2011, dated 2014).

Assays:
Assay type in all cases: biochemical
[1] = biological target: T1, aryl alcohol dehydrogenase (AAD) (Pseudomonas putida, UniProt P39849); test: Kinetic constants of AAD; settings: recombinant Pseudomonas putida AAD
T1 construct: made in house; host or cells: E. coli
T1 sequence (P39849 1-366): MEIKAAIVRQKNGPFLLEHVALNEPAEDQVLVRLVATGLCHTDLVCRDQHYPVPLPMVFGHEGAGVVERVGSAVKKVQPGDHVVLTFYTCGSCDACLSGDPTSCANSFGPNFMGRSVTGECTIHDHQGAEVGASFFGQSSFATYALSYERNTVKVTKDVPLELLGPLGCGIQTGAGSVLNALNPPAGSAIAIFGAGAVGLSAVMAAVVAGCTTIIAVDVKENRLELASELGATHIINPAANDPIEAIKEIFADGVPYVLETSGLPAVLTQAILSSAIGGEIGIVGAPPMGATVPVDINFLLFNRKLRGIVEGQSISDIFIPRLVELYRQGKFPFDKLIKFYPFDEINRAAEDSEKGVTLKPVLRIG
Text: AAO was purified from Pleurotus eryngii using the procedures described in Guillen, F. et al., “Substrate specificity and properties of aryl-alcohol oxidase from the ligninolytic fungus Pleurotus eryngii,” Eur. J. Biochem., 209:603-611 (1992). The purification steps include concentration, anion exchange chromatography and hydrophobic interaction chromatography. DNA construct for recombinant production of Pseudomonas putida AAD was made based on the DNA sequence disclosed in Shaw, J. P. et al., Kinetic studies on benzyl alcohol dehydrogenase encoded by TOL plasmid pWW0,” J. Biol. Chem., 268:10842-10850 (1993), and the recombinant Pseudomonas putida AAD was made by overexpression in E. coli. The cycling system was combined with chemiluminescent (lumino)-hydrogen peroxide-horseradish peroxidase) reaction to form a sensitive assay.
For AAD, KNADH=9.1±2 μM; Kp-Anisyl aldehyde=6.6±0.8 μM; and kcat=30/s.

[2] = tested on: beta-galactosidase; test: Hydrolysis by beta-galactosidase coupled with aryl alcohol oxidase, H2O2 detection; settings: 10 mM substrate, 10 unit/ml beta-galactosidase and 20 unit/ml aryl alcohol oxidase, 37° C., 30 min
Text: (§1) The aryl alcohol dehydrogenase used in this example was recombinantly produced based on the description in Guillen and Evans, Appl. Environmental Microbiol., 60(8):2811-17 (1994) and Reiser et al., J. Biol. Chem., 269(45):28152-28159 (1994).

[3] = tested on: aryl alcohol oxidase; test: Incubation with aryl alcohol oxidase alone, H2O2 detection; settings: no beta-galactosidase
Text: as §1

## NC(=O)C1=CN([C@@H]2O[C@H](COP(=O)(O)OP(=O)(O)OC[C@H]3O[C@@H](n4cnc5c(N)ncnc54)[C@H](O)[C@@H]3O)[C@@H](O)[C@H]2O)C=CC1 [NADH, reference compound]
[1]
  KNADH (AAD): 9.1 ± 2 µM

## COc1ccc(C=O)cc1 [p-Anisyl aldehyde]
[1]
  Kp-Anisyl aldehyde (AAD): 6.6 ± 0.8 µM
  kcat (AAD): 30 s⁻¹

## COc1ccc(CO[C@@H]2OC(CO)[C@H](O)[C@@H](O)C2O)cc1 (stereo partly drawn) [p-MOBG, p-Methoxybenzyl-β-D-Galactopyranoside]
[2]
  generation of H2O2 (detected by peroxidase in the presence of 4-AA and TOOS at 560 nm): resulted in generation of H2O2
[3]
  H2O2 detected on incubation with aryl alcohol oxidase alone: no H2O2 detected
